Results as given in article PMC4389225, “Triaminopyrimidine is a fast-killing and long-acting antimalarial clinical candidate” (Nature Communications, 2015).

Columns and labels:
Muscarinic M2 receptor = molecular target: T1, Muscarinic M2 receptor (Homo sapiens, UniProt P08172); assay: Muscarinic M2 receptor radioligand binding (CEREP)
T1 construct: purchased CEREP, France (external assay service)
T1 sequence (P08172 1-466): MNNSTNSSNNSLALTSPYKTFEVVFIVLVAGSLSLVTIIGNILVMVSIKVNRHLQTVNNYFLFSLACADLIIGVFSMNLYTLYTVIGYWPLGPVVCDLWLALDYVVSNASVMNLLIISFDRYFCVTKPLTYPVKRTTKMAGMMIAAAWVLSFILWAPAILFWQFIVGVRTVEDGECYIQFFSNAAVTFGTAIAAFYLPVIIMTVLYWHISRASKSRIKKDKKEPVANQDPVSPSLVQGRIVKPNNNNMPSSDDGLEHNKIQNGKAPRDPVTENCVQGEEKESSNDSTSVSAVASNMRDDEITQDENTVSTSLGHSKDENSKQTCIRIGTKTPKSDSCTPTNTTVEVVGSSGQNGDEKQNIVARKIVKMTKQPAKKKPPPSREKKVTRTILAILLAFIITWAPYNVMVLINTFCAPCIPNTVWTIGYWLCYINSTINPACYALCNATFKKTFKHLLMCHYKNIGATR
Experimental: (§1) An in vitro pharmacological profiling panel was specifically designed for the detection of potential high- risk clinical adverse drug reactions. The panel comprised of 26 diverse targets (6 enzymes, 2 transporters, 9 G-protein-coupled receptors (GPCRs), 5 ion channels along with hERG, M2, alpha1A and AchE) and was conduced externally by CEREP, France […]. […] Detailed methodology for in vitro pharmacological profiling assays provided by CEREP can be found at http://www.cerep.fr, with specific reference to the AChE (cat. no. 0363), Muscarinic M1 receptor (cat. no. 0091) and Adrenergic α1A receptor (cat. no. 2338) assays. For enzyme and kinase assays, the results were expressed as a percent inhibition of control-specific activity obtained in the presence of the test compound. The IC50 values (concentration causing a half-maximal inhibition of control-specific activity) and Hill coefficients (nH) were determined by nonlinear regression analysis of the inhibition/concentration–response curves using Hill equation curve fitting as described earlier.
(§2) For radioligand binding assays, the results are expressed as % inhibition of control-specific binding obtained in the presence of the test compounds. The IC50 values (concentration causing a half-maximal inhibition of control-specific binding) and Hill coefficients (nH) were determined by nonlinear regression analysis of the competition curves generated with mean replicate values using Hill equation curve fitting. The inhibition constants (Ki) were subsequently calculated by applying the Cheng Prusoff equation[38].

Pf W2 = assay: microbe, parasite or virus in culture; assay type: cell-based; details: Plasmodium falciparum
From the text: (§3) tested in duplicate from two independent experiments using a SYBR-Green based assay2.
(§4) (1 picture or pasted object on this page, not shown here)

Pf NF54 = assay: microbe, parasite or virus in culture; assay type: cell-based; details: Plasmodium falciparum
From the text: as §3, §4

Pf SB1 = assay: microbe, parasite or virus in culture; assay type: cell-based; details: Plasmodium falciparum
From the text: as §3, §4

Pf 7G8 = assay: microbe, parasite or virus in culture; assay type: cell-based; details: Plasmodium falciparum
From the text: as §3, §4

Pf K1 = assay: microbe, parasite or virus in culture; assay type: cell-based; details: Plasmodium falciparum
From the text: as §3, §4

Pf DD2 = assay: microbe, parasite or virus in culture; assay type: cell-based; details: Plasmodium falciparum
From the text: as §3, §4

α1A adrenoceptor = molecular target: T2, α1A adrenoceptor (Homo sapiens, UniProt P35348); assay: α1A adrenoceptor radioligand binding (CEREP)
T2 construct: purchased CEREP, France (external assay service) 2338
T2 sequence (P35348 1-466): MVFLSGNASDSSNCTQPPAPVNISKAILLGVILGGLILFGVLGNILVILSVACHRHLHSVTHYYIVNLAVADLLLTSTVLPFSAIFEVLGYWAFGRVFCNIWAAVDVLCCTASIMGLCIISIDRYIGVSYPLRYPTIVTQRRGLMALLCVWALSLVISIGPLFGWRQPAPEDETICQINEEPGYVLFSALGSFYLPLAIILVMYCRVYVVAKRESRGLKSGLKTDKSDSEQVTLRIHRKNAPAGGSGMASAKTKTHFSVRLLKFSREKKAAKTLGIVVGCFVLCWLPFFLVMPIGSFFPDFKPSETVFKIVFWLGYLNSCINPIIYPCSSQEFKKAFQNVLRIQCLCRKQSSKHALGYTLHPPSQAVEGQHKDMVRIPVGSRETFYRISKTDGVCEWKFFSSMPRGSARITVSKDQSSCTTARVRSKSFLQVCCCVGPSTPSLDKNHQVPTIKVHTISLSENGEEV
Experimental: as §1, §2

[1] = test system: asexual blood stage of Pf; assay: Pf asexual blood stage potency (Pf IC50); assay type: cell-based, Plasmodium falciparum; details: Plasmodium falciparum
From the text: The TAPs series emerged from a high-throughput screen (HTS) of 500,000 compounds from the AstraZeneca corporate library against the asexual blood stage of Pf using a high-content image-based approach. The procedure for synthesis of compounds 1-6, 10, 11 using a scheme similar to Fig. 1 is provided in Supplementary Note 1. The initial hit provided multiple diversification points for a robust lead optimization campaign. […] Compounds with 2-pyridyl modification at the 2-amino position of pyrimidine core improved potency and solubility at the cost of potent activity against hERG and acetylcholine esterase (AChE; compounds 3-6; Table 1). […] The observed hERG and AChE selectivity improvement with 7 could be attributed to the polar nature of the pyrazole group and its role in reducing the pKa of the core pyrimidine ring. […] To assess the potential for cross-resistance, representative TAPs were screened against a panel of clinical isolates and in vitro-generated mutant strains displaying varying mechanisms of resistance to antimalarial agents currently in use and under development, respectively, (Supplementary Tables 1–3).

[2] = Rat blood PK, IV and oral; assay type: in vivo; details: Wistar, rat, whole blood, oral, 10 mg/kg, rat; read-out: Rat F (bioavailability)
Experimental: Blood samples were collected at 0.083, 0.25, 0.5, 1, 2, 4, 8, 23, 32, 48, 55 and 72 hours after an IV dose of 2 mg/kg or an oral dose of 10 mg/kg. Oral administration was done using oral gavage at a maximum dose volume of 10 mL/kg. Solution formulation containing 10% NMP, 20% DMA in dextrose / normal saline was used for IV administration and a suspension in 0.5% w/v HPMC with 0.1% v/v Tween 80 was used for oral administration. 25 µl of blood samples were mixed with 100 µL of Milli-Q water and vortexed for 5 minutes in the plate shaker at a speed of 900 rpm to ensure complete hemolysis. Proteins were precipitated by adding 125 µL of cold acetonotrile containing internal standard. After extraction on a plate shaker for 10 minutes at 900 rpm, the plate was centrifuged at 4000 rpm for 20 minutes. The supernatant (180 µL) was transferred to another plate and 2.5 µL of Zinc sulphate (200 mM) was added to separate the heme fraction. This mixture was centrifuged and 10 µL of the supernatant was analyzed by LC-MS/MS. […]

[3] = molecular target: T3, acetylcholine esterase (AChE) (Homo sapiens, UniProt P22303); assay: AChE enzyme activity assay (CEREP); assay type: biochemical; details: read-out: AChE IC50
T3 construct: purchased CEREP, France (external assay service) 0363
Experimental: as §1

Caco2 permeability = details: human, Caco-2
hERG = molecular target: T4, hERG (Homo sapiens, UniProt Q12809); assay: electrophysiology-based hERG assay using IonWorks HT (CHO cells); assay type: cell-based; details: hERG IC50
T4 construct: expressed in transfected cells; host or cells: CHO cells
Experimental: hERG IC50 was determined in an electrophysiology-based hERG assay using IonWorks HT (CHO cells) as described earlier.

T3 sequence (P22303 32-614): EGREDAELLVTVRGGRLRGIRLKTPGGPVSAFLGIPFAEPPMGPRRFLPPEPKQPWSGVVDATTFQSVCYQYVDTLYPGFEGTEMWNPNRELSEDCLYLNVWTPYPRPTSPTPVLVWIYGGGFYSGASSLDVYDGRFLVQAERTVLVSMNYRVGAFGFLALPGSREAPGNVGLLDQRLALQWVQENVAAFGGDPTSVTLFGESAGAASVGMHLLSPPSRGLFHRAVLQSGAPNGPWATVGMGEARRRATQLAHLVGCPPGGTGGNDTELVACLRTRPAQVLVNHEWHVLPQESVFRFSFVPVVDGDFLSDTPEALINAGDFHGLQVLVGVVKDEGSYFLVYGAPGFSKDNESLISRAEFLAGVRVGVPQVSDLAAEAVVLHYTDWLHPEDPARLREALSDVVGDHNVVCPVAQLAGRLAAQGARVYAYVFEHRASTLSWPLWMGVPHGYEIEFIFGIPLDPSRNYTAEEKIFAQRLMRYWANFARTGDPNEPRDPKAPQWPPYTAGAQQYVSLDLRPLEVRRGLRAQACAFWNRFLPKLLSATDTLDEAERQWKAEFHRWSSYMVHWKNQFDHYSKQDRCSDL
T4 sequence (Q12809 whole entry): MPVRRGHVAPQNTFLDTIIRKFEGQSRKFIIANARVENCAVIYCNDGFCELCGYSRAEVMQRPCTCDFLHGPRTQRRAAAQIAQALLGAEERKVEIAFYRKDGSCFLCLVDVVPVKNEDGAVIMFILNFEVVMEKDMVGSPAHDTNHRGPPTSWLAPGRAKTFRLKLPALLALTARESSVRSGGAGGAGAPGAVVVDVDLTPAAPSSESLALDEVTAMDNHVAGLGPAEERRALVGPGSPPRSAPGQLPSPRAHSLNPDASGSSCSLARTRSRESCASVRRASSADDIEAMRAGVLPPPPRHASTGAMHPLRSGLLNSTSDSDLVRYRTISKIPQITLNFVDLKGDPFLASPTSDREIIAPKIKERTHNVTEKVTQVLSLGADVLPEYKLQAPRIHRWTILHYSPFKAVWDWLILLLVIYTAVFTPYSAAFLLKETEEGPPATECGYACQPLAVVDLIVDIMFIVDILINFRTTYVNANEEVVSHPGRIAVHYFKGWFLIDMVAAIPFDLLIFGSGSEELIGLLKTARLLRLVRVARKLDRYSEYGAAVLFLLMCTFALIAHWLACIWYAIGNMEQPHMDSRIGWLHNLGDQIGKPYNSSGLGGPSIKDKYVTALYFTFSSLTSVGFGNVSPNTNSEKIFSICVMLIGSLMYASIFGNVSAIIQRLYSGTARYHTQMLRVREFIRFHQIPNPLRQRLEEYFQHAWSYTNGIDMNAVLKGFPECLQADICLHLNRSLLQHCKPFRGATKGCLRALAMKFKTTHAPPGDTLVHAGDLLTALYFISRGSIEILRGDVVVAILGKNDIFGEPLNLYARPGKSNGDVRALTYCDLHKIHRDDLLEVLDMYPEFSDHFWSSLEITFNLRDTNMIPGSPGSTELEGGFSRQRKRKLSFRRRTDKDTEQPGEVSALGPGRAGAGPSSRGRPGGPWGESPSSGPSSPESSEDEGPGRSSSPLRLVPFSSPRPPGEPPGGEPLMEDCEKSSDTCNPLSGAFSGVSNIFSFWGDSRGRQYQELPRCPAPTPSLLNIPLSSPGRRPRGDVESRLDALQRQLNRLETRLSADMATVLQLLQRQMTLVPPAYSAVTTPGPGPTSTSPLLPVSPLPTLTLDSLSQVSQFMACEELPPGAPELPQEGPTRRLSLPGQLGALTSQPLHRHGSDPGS

CCc1cc(Nc2ncc(N3CCN[C@H](C)C3)c(Nc3cc(C)n(C)n3)n2)nc(C)c1F.Cl.Cl [compound 8, (R)-N4-(1,5-dimethyl-1H-pyrazol-3-yl)-N2-(4-ethyl-5-fluoro-6-methylpyridin-2-yl)-5-(3-methylpiperazin-1-yl)pyrimidine-2,4-diamine dihydrochloride]
IC50 (Muscarinic M2 receptor): 3100 nM | IC50 (Pf W2): 78.8 ± 7 nM | IC50 (Pf NF54): 57.2 ± 20 nM | IC50 (Pf SB1): 34.7 ± 3 nM | IC50 (Pf 7G8): 74.4 ± 17 nM | IC50 (Pf K1): 64.7 ± 12 nM | IC50 (Pf DD2): 38.3 ± 1.5 nM | IC50 (α1A adrenoceptor): 1300 nM | IC50 [1]: 25 nM | bioavailability [2]: 31% | IC50 [3]: 30000 nM | Papp A→B (Caco2 permeability): 4 ×10⁻⁶ cm/s | IC50 (hERG): > 30000 nM
